Assay [1] relates to IL-2-induced JAK1/JAK3 signal pathway. Kind of assay: IL-2-induced proliferation of KHYG-1 cells (JAK1/JAK3 signal). Type of assay: cell-based, human. The note with it: Homo sapiens, read-out: Inhibition activity IC50 on IL-2-induced JAK1/JAK3 signal pathway. The text has this:
The main physiological function of cytokine IL-2 is to stimulate and maintain the proliferation and differentiation of T cells. Generally, IL-2 dependent T cells cannot survive in in-vitro culture for a long time, but the addition of IL-2 can make them continue to proliferate. The signal pathway induced by IL-2 coupling with its receptor is mediated by JAK1/JAK3-STAT5, so the inhibitor of JAK1 and/or JAK3 can inhibit the proliferation of IL-2 dependent cells.
Human natural killer cell lymphoma cell line KHYG-1 was commercially available from Health Science Research Resources Bank (HSRRB), and relevant culture conditions referred to those from HSRRB.
The inhibition rate of the tested compound on IL-2-induced cell proliferation was calculated using Microsoft Excel.
After culture at 37° C. and 5% CO2 for 72 hours, alamarBlue™ Cell Viability Reagent was added to each well following the instructions.
The well in which neither compound nor cytokine was added was designated as 0% control well, and the fluorescence value in the wells in which the final concentration of compound was 0 was designated as 100% control. The inhibition activity […] of the tested compound on JAK1/JAK3 could be calculated from the inhibition rate of the tested compound on IL-2-induced cell proliferation at different doses.

The test system of assay [2] is EPO-induced JAK2 signal pathway. In words: EPO-induced proliferation of UT-7 cells (JAK2 signal). Format: cell-based, human. The note with it: Homo sapiens, UT7; UT-7 cell proliferation, EPO 10 ng/mL, 72 hours; read-out: Inhibition activity IC50 on EPO-induced JAK2 signal pathway. As for the experimental part:
The cytokine EPO, i.e. erythropoietin, can promote the proliferation and division of erythroid progenitor cells, and the signal pathway induced by EPO coupling with its receptor is mediated by JAK2-STAT5.
Human promegakaryocytic leukemia cell line UT-7 was commercially available from Cell Resource Center, Institute of Basic Medicine, Chinese Academy of Medical Sciences. The culture medium was RPIM1640 containing 10% FBS, and EPO was added for a final concentration of 10 ng/mL.
The inhibition rate of the tested compound on EPO-induced cell proliferation was calculated using Microsoft Excel.
UT-7 cell line was inoculated in 96-well plate with flat bottom at 15000 cells per well, each well was added with 10 ng/mL of human recombinant EPO (Human EPO PEPROTECH 100-64-10UG), along with tested compound respectively for a final concentration of 0, 100, 1000 or 10000 nM. After culture at 37° C. and 5% CO2 for 72 hours, alamarBlue™ Cell Viability Reagent was added to each well following the instructions. After incubation at 37° C. for color reaction, the fluorescence value at Ex530/Em590 was detected using Tecan Spark™ 10M multimode microplate reader.
The well in which neither compound nor cytokine was added was designated as […], and the fluorescence value in the wells in which the final concentration of compound was 0 was designated as 100 control. The inhibition activity […] ofthe tested compound on JAK2 could be calculated from the inhibition rate ofthe tested compound on EPO-induced cell proliferation at different doses.

Setting [3] is: KHYG-1 cell proliferation, IL-2 10 ng/mL, 72 hours.

Like-named read-outs stand apart in the source and are kept apart here. Bounds are passed on as bounds.

Take `CONC(=O)c1cnc(NC(=O)C2CC2)cc1Nc1cccc(-c2cnn(C)c2)c1C#N` [Example 48, 4-((2-cyano-3-(1-methyl-1H-pyrazol-4-yl)phenyl)amino)-6-(cyclopropylcarboxamido)-N-methoxy nicotinamide]: the IC50 in assay [1] (setting [3]) and in assay [2] was over 10 µM in each case.

Turning to `CONC(=O)c1cnc(Nc2ccc(F)cn2)cc1Nc1cccc(-c2cnn(C)c2)c1C#N` [Example 49, 4-((2-cyano-3-(1-methyl-1H-pyrazol-4-yl)phenyl)amino)-6-((5-fluoropyridin-2-yl)amino)-N-methoxy nicotinamide], the IC50 in assay [1] (setting [3]) and in assay [2] was over 10 µM each time.

As to `CONC(=O)c1cnc(NC(=O)C2CC2)cc1Nc1cccc(-c2ccn(C)n2)c1OCC(F)(F)F` [Example 50, 6-(cyclopropylcarboxamido)-N-methoxy-4-((3-(1-methyl-1H-pyrazol-3-yl)-2-(2,2,2-trifluoroethoxy)phenyl)amino)nicotinamide], the IC50 in assay [1] (setting [3]) and in assay [2] was over 10 µM throughout.

Take `CONC(=O)c1cnc(Nc2ccc(F)cn2)cc1Nc1cccc(-c2ccn(C)n2)c1OCC(F)(F)F` [Example 51, 6-((5-fluoropyridin-2-yl)amino)-N-methoxy-4-((3-(1-methyl-1H-pyrazol-3-yl)-2-(2,2,2-trifluoroethoxy)phenyl)amino)nicotinamide]: the IC50 in assay [1] (setting [3]) and in assay [2] was over 10 µM each time.

For the compound `CONC(=O)c1nnc(NC(=O)C2CC2)cc1Nc1cccc(-c2ncn(C)n2)c1OC` [Example 52, 6-(cyclopropylcarboxamido)-N-methoxy-4-((2-methoxy-3-(1-methyl-1H-1,2,4-triazol-3-yl)phenyl)amino)pyridazine-3-carboxamide], the IC50 in assay [1] (setting [3]) and in assay [2] was over 10 µM each time.

Consider `CONC(=O)c1nnc(NC(=O)C2CC2)cc1Nc1cccc(-c2ccn(C)n2)c1OC` [Example 53, 6-(cyclopropylcarboxamido)-N-methoxy-4-((2-methoxy-3-(1-methyl-1H-pyrazol-3-yl)phenyl)amino)pyridazine-3-carboxamide], for which the IC50 in assay [1] (setting [3]) and in assay [2] was over 10 µM each time.

For `CONC(=O)c1cnc(NC(=O)C2CC2)cc1Nc1cccc(-c2cnn(C)c2)c1OC(F)F` [Example 54, 6-(cyclopropylcarboxamido)-4-((2-(difluoromethoxy)-3-(1-methyl-1H-pyrazol-4-yl)phenyl)amino)-N-methoxy nicotinamide], the IC50 in assay [1] (setting [3]) and in assay [2] was over 10 µM throughout.

On to `CONC(=O)c1cnc(NC(=O)C2CC2)cc1Nc1cccc(-c2noc(C)n2)c1OC` [Example 55, 6-(cyclopropylcarboxamido)-N-methoxy-4-((2-methoxy-3-(5-methyl-1,2,4-oxadiazol-3-yl)phenyl)amino)nicotinamide], for which the IC50 in assay [1] (setting [3]) and in assay [2] was over 10 µM throughout.

As for `CONC(=O)c1cnc(NC(=O)C2CC2)cc1Nc1cnccc1N(C)S(C)(=O)=O` [Example 56, 6-(cyclopropylcarboxamido)-N-methoxy-4-((4-(N-methylmethanesulfonamido)pyridin-3-yl)amino)nicotinamide], the IC50 in assay [1] (setting [3]) and in assay [2] was over 10 µM in each case.

As to `CONC(=O)c1cnc(NC(=O)C2CC2)cc1Nc1cccc(C(N)=O)c1OC` [Example 57, 4-((3-carbamoyl-2-methoxyphenyl)amino)-6-(cyclopropylcarboxamido)-N-methoxy nicotinamide], the IC50 in assay [1] (setting [3]) and in assay [2] was over 10 µM in each case.

For the compound `CONC(=O)c1cnc(Nc2ccc(F)cn2)cc1Nc1cnccc1N(C)S(C)(=O)=O` [Example 58, 6-((5-fluoropyridin-2-yl)amino)-N-methoxy-4-((4-(N-methylmethanesulfonamido)pyridin-3-yl)amino)nicotinamide], the IC50 in assay [1] (setting [3]) and in assay [2] was over 10 µM throughout.

As for `CONC(=O)c1cnc(NC(=O)C2CC2)cc1Nc1ccc(C)nc1N(C)S(C)(=O)=O` [Example 59, 6-(cyclopropylcarboxamido)-N-methoxy-4-((6-methyl-2-(N-methylmethanesulfonamido)pyridin-3-yl)amino)nicotinamide], the IC50 in assay [1] (setting [3]) and in assay [2] was over 10 µM in each case.

As for `CONC(=O)c1cnc(Nc2ccc(F)cc2)cc1Nc1ccc(C)nc1N(C)S(C)(=O)=O` [Example 64, 6-((4-fluorophenyl)amino)-N-methoxy-4-((6-methyl-2-(N-methylmethanesulfonamido)pyridin-3-yl)amino)nicotinamide], the IC50 in assay [1] (setting [3]) and in assay [2] was over 10 µM throughout.

As for `CON(C)C(=O)c1cnc(Nc2cccc(F)n2)cc1Nc1ccccc1N(C)S(C)(=O)=O` [Example 65, 6-((6-fluoropyridin-2-yl)amino)-N-methoxy-N-methyl-4-((2-(N-methylmethanesulfonamido)phenyl)amino)nicotinamide], the IC50 in assay [1] (KHYG-1, 72 h) is over 10 µM; in assay [2], over 10 µM.

Turning to `CCONC(=O)c1cnc(Nc2nc(C)cc(C)n2)cc1Nc1ccc(C)cc1N(C)S(=O)(=O)C1CC1` [Example 66, 6-((4,6-dimethylpyrimidin-2-yl)amino)-N-ethoxy-4-((4-methyl-2-(N-methylcyclopropylsulfonamido)phenyl)amino)nicotinamide], the IC50 in assay [1] (setting [3]) and in assay [2] was over 10 µM in each case.

In the case of `CONC(=O)c1c(Nc2ccc(C3CC3)cc2N(C)S(C)(=O)=O)cc(Nc2cccc(F)n2)nc1C` [Example 67, 4-((4-cyclopropyl-2-(N-methylmethanesulfonamido)phenyl)amino)-6-((6-fluoropyridin-2-yl)amino)-N-methoxy-2-methyl nicotinamide], the IC50 in assay [1] (setting [3]) and in assay [2] was over 10 µM each time.

In the case of `CCNC(=O)c1cnc(NC(=O)C2CC2)cc1Nc1cccc(-c2cnn(C)c2)c1OC` [Example 71, 6-(cyclopropylcarboxamido)-N-ethyl-4-((2-methoxy-3-(1-methyl-1H-pyrazol-4-yl)phenyl)amino)nicotinamide], the IC50 in assay [1] (setting [3]) and in assay [2] was over 10 µM throughout.

In the case of `CONC(=O)c1cnc(Nc2ccc(S(C)(=O)=O)cc2)cc1Nc1cccc(-c2cnn(C)c2)c1OC` [Example 72, N-methoxy-4-((2-methoxy-3-(1-methyl-1H-pyrazol-4-yl)phenyl)amino)-6-((4-(methanesulfonyl)phenyl)amino)nicotinamide], the IC50 in assay [1] (setting [3]) and in assay [2] was over 10 µM throughout.

`CONC(=O)c1cnc(NC(=O)C2CC2)cc1Nc1ccccc1P(C)(C)=O` [Example 73, 6-(cyclopropylcarboxamido)-4-((2-(dimethylphosphoryl)phenyl)amino)-N-methoxy nicotinamide]: the IC50 in assay [1] (setting [3]) and in assay [2] was over 10 µM each time.

Consider `CONC(=O)c1cnc(Nc2cccc(F)n2)cc1Nc1ccccc1P(C)(C)=O` [Example 74, 4-((2-(dimethylphosphoryl)phenyl)amino)-6-((6-fluoropyridin-2-yl)amino)-N-methoxy nicotinamide], for which the IC50 in assay [1] (setting [3]) and in assay [2] was over 10 µM throughout.

For the compound `CONC(=O)c1cnc(NC(=O)C2CC2)cc1Nc1cccc(Cl)c1N(C)S(C)(=O)=O` [Example 75, 4-((3-chloro-2-(N-methylmethanesulfonamido)phenyl)amino)-6-(cyclopropylcarboxamido)-N-methoxy nicotinamide], the IC50 in assay [1] (setting [3]) and in assay [2] was over 10 µM each time.

The record behind these values is patent US20240101548A1, “HYDROXAMATE COMPOUND, PREPARATION METHOD THEREFOR AND APPLICATION THEREOF” (SHENZHEN CHIPSCREEN BIOSCIENCES CO., LTD., priority 2020, published 2024).
